{"source": "patent US9636323B2", "about": "“Method of treating cancer that overexpresses TopBP1” (Baylor College of Medicine, priority 2014, dated 2017)", "key": {"[1]": {"tested_on": "SKOV-3 cells", "assay": "Caspase-Glo 3/7 assay, SKOV-3 transfected with mutp53(R273H)", "assay_type": "cell-based, human", "details": "cisplatin 20 μM with Calcein AM 5 μM, 20 h", "description": "The apoptosis was measured by Caspase-Glo® 3/7 assay (Promega) following the manufacturer's protocol. The cells were plated in 6-well tissue culture dish (10^4 cells/well) (BD Falcon) in respective media. […] The blank reactions were prepared per direction. Equal volume of Caspase-Glo® 3/7 reagents were applied to each well. A luminometer (Sirius) was used to quantitate luminescence."}, "[2]": {"tested_on": "Hs-578T", "details": "NCI-DTP database; cited from earlier work"}, "[3]": {"tested_on": "mutp53/p73 interaction", "assay": "Anti-p73 immunoprecipitation in MDA-MB468 cells", "assay_type": "cell-based, human", "details": "2.5 μM, 5 h", "description": "(§1) MDA-MB468 cells were lysed with TNN buffer (Liu et al. 2003). An aliquot of cell lysates was lysed with SDS lysis buffer and the rest of cell lysates were incubated with appropriate antibodies or beads at 4° C. for 3-12 h. Anti-FLAG beads (Sigma) were washed three times with TNN buffer. Immunoprecipitates were fractionated by SDS-PAGE and electro-transferred to Immobilon-P membrane (Millipore). Equal amount of protein loading was validated with Ponceau-S staining. The specific signals were detected by incubating with appropriate antibody. All primary antibodies were used at 1:1000 dilution and horseradish peroxidase (HRP)-conjugated secondary antibodies were used at 1:5000 dilution for immunoblotting. E2F1 (C-20 and KH-95), p53 (FL393), p63 (4A4 and H-129), p73 (H-79), p21 (C-19), Bax (N-20), GST (B-14), c-Myc (A14), Miz1 (H-190), Chk1 (G4), Actin (C-2) and GAPDH (6C5) antibodies were purchased from Santa Cruz. TopBP1 (mouse monoclonal) and Aid antibodies were purchased from BD Transduction Laboratories. TopBP1 (BL893, Rabbit polyclonal) antibody was purchased from Bethyl. Mouse monoclonal anti-phospho-γH2AX was purchased from Millipore. Phospho-Chk1 (Ser345) antibody was purchased from Cell signaling. FLAG (F7425) antibody was purchased from Sigma. Mouse monoclonal anti-p73 (IMG-246) was purchased from IMGENEX."}, "[4]": {"tested_on": "E2F1, p63/p73 and NF-Y target genes", "assay": "Real-time RT-PCR of E2F1, p63/p73 and NF-Y target genes in MDA-MB468 cells", "assay_type": "cell-based, human", "details": "2.5 μM, 5 h", "description": "RNA was isolated using TRIzol method (Invitrogen). Quantitative reverse transcription-PCR (RT-PCR) was performed in triplicate using the forward and reverse primers ((Chowdhury et al. 2014) Supplementary FIG. 18) on an MX3005P thermal cycler using SYBR green dye method to observe the progress of the reactions with ROX dye, which was added as reference. GAPDH was run in parallel with target genes."}, "[5]": {"tested_on": "BT549 cells", "assay": "Trypan blue exclusion viability assay, BT549", "assay_type": "cell-based, human", "description": "To prepare TopBP1 knockdown stable cell line, MDA-MB468 cells were infected with lentivirus expressing TopBP1 shRNA (Liu et al. 2011) as well as scramble shRNA, separately. The infected cells were grown for 48 h followed by selection with puromycin (2 μg/ml). After selection, the knockdown was confirmed by Western blotting before further experiments. Two different pLKO-shTopBP1 (#1 and #2) constructs (Open Biosystems, RHS4533-NM_007027) were used to deplete TopBP1 in MDA-MB468 cells. Additional two pSuper-shTopBP1 constructs (Liu et al. 2004) were used to knock down TopBP1 in HEK293 cells. Two pSuper-shE2F1 constructs were used to deplete E2F1: shE2F1#1 (described previously (Liu et al. 2004)), and shE2F1#2 (target sequence 5′-[…]-3′). The target sequence for pSuperior-shE2F1 is the same as pSuper-shE2F1#1. To deplete p63, shp63alpha pLKO.1-puro (from Addgene, 19120) was used. TP73 MISSION shRNA (shp73 pLKO.1-puro) was purchased from Sigma (TRCN00002722587)."}, "[6]": {"tested_on": "MDA-MB468", "assay": "DNA damage signals (pS15-p53, γ-H2AX) in MDA-MB468", "assay_type": "cell-based, human", "details": "up to 10 μM", "description": "as §1"}, "[7]": {"tested_on": "RPMI 8226 myeloma cell line", "assay": "MTS assay, RPMI 8226", "assay_type": "cell-based, human", "details": "Calcein AM 2.5 μM, 12 h, mutp53(E285K)", "description": "Then 50 μl of MTS reagent (CellTiter 96® AQueous One Solution Cell Proliferation Assay, Promega) was added to each well, covered from light and incubated for 1 h at 37.0 incubator to develop purple color. The samples were measured at 490 nm in a plate reader (BioTek Synergy HT) against a blank 48-well plate. Each assay was done in triplicate."}, "[8]": {"tested_on": "BT549 xenografts", "assay": "BT549 xenograft formation", "assay_type": "in vivo, nude mice", "description": "Twenty nude mice were injected s.c. with BT549 cells. […] Six out of eight DMSO-treated mice developed xenografts later."}}, "data": [{"molecule": "CC(=O)OCOC(=O)CN(CC(=O)OCOC(C)=O)Cc1cc2c(cc1OC(C)=O)Oc1cc(OC(C)=O)c(CN(CC(=O)OCOC(C)=O)CC(=O)OCOC(C)=O)cc1C21OC(=O)c2ccccc21", "note": "[Calcein AM, Calcein AM (acetoxymethyl ester)]", "values": [{"measurement": "inhibition of cisplatin-induced apoptosis by overexpressed mutp53(R273H)", "setting": "[1]", "value": "partially rescued"}, {"measurement": "GI50", "setting": "[2]", "value": "< 400", "unit": "nM"}, {"measurement": "binding of p73 to mutp53", "setting": "[3]", "value": "release of p73 from mutp53"}, {"measurement": "E2F1 pro-apoptotic target genes (p73, Apaf1, caspase 3)", "setting": "[4]", "value": "up-regulated"}, {"measurement": "NF-Y target genes (Cdk1, Cdc25C, Cyclin A2)", "setting": "[4]", "value": "down-regulation"}, {"measurement": "p63/p73 target genes (Bax, Noxa, Hdm2)", "setting": "[4]", "value": "up-regulation"}, {"measurement": "induction of E2F1, p63/p73 and NF-Y target gene expression", "setting": "[4]; TopBP1-depleted cells", "value": "less significant"}, {"measurement": "Calcein AM response, viability assay", "setting": "[5]; E2F1 depleted by two shRNA constructs, 2.5 μM, 20 h", "value": "attenuated"}, {"measurement": "living cells compared with scrambled shRNA", "setting": "[5]; p63- and p73-depleted cells, 2 μM, 15 h", "value": "more living cells"}, {"measurement": "DNA damage (pS15-p53 or γ-H2AX signal)", "setting": "[6]", "value": "did not see evidence of DNA damage"}, {"measurement": "doxorubicin sensitivity (MTS)", "setting": "[7]", "value": "sensitized cells to doxorubicin"}, {"measurement": "mice that developed tumors", "setting": "[8]; 20 mg/kg i.p. every three days for three doses", "value": "none of the eight"}, {"measurement": "mice that developed tumors", "setting": "[8]; 40 mg/kg i.p. every three days for three doses", "value": "none of the four"}]}]}
